Each compound was assayed against human DGKζ (Homo sapiens (Human), UniProt Q13574) (assay: Human DGKζ kinase activity inhibition assay (ADP-Glo)). Details: IC50, in vitro human DGKζ kinase activity inhibition assay.
Type: biochemical
Method in brief: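 Enzyme was C-terminally FLAG-tagged full-length recombinant human DGKζ from baculovirus-infected insect cells. Substrate preparation used octyl-β-D-glucopyranoside in 50 mM MOPS pH 7.4 with sonication; ADP generated was quantified by ADP-Glo luminescence as activity measure.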

Sequence of human DGKζ (Q13574 other isoform, or with tags, fused parts or gaps): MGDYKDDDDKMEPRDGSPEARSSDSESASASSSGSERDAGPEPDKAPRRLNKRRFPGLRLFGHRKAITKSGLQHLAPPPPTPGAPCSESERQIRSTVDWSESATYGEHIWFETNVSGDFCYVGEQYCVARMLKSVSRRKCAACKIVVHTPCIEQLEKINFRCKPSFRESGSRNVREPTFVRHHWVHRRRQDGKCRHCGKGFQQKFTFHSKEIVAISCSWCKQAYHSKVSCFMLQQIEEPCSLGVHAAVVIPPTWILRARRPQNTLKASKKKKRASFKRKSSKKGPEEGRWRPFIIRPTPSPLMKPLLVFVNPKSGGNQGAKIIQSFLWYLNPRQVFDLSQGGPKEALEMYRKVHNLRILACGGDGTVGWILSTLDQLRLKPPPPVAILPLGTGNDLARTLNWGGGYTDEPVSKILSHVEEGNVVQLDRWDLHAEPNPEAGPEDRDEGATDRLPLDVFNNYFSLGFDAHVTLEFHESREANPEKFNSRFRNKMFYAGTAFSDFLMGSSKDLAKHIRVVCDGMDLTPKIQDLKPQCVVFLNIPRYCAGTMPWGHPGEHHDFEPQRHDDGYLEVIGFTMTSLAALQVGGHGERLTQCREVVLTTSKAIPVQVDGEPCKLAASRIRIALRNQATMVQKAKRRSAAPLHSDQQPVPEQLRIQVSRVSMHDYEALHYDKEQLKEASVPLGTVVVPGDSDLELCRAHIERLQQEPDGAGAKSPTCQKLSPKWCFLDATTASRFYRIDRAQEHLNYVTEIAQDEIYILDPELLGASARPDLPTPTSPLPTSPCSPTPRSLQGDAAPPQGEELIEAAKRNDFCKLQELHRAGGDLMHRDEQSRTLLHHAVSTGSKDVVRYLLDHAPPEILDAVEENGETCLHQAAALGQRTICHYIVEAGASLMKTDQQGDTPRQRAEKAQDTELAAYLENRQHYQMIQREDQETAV

| Structure (SMILES) | IC50 [nM] |
| --- | --- |
| Cc1cccc(N(C)C(=O)COc2ccc(C(=O)c3sc(N(c4ccc(F)cc4)C(C)C(N)=O)nc3N)cc2)c1 (racemic) [Example 140, rac-2-(N-[4-amino-5-[4-[2-(N,3-dimethylanilino)-2-oxo-ethoxy]benzoyl]thiazol-2-yl]-4-fluoro-anilino)propanamide] | 37.5 |

Same assay, conditions: in vitro human DGKζ kinase activity inhibition assay; read-out: IC50

| Structure (SMILES) | IC50 [nM] |
| --- | --- |
| CC(C(N)=O)N(c1nc(N)c(C(=O)c2ccccc2)s1)c1ccc(OC(F)F)cc1Cl (racemic) [Example 242, rac-2-[N-(4-amino-5-benzoyl-thiazol-2-yl)-2-chloro-4-(difluoromethoxy)anilino]propanamide] | 2030 |
| CC(C(N)=O)N(c1ccc(F)cc1)c1nc(N)c(C(=O)c2cccc(OC(F)F)c2)s1 (racemic) [Example 183, rac-2-(N-[4-amino-5-[3-(difluoromethoxy)benzoyl]thiazol-2-yl]-4-fluoro-anilino)propanamide] | 222 |
| CC(C(N)=O)N(c1ccc(F)cc1)c1nc(N)c(C(=O)c2ccc(OC(C)(C)C(N)=O)cc2)s1 (racemic) [Example 155, rac-2-[4-[4-amino-2-(N-(2-amino-1-methyl-2-oxo-ethyl)-4-fluoro-anilino)thiazole-5-carbonyl]phenoxy]-2-methyl-propanamide] | 200 |
| CC(C(N)=O)N(c1ccc(OCc2ccccc2)cc1)c1nc(N)c(C(=O)c2ccc(OC(F)F)cc2)s1 (single isomer, unassigned) [Example 182.2, 2-(N-[4-amino-5-[4-(difluoromethoxy)benzoyl]thiazol-2-yl]-4-benzyloxy-anilino)propanamide] | 10500 |
| CC(Oc1ccc(C(=O)c2sc(N(c3ccccc3)C(C)C(N)=O)nc2N)cc1)C(N)=O (single isomer, unassigned) [Example 45.3, 2-(N-[4-amino-5-[4-[2-amino-1-methyl-2-oxo-ethoxy]benzoyl]thiazol-2-yl]anilino)propanamide] | 1050 |
| CC(C(N)=O)N(c1ccc(F)cc1)c1nc(N)c(C(=O)c2ccc(OCc3ccccc3)cc2)s1 (single isomer, unassigned) [Example 170.1, 2-(N-[4-amino-5-(4-benzyloxybenzoyl)thiazol-2-yl]-4-fluoro-anilino)propanamide] | 5 |
| CC(C(N)=O)N(c1ccc(OC(F)F)c(F)c1)c1nc(N)c(C(=O)c2ccc(OC(F)F)nc2)s1 (racemic) [Example 209, rac-2-[N-[4-amino-5-[6-(difluoromethoxy)pyridine-3-carbonyl]thiazol-2-yl]-4-(difluoromethoxy)-3-fluoro-anilino]propanamide] | 45 |
| CC(C(N)=O)N(c1ccc(F)c(Cl)c1)c1nc(N)c(C(=O)c2ccncc2)s1 (racemic) [Example 160, rac-2-(N-[4-amino-5-(pyridine-4-carbonyl)thiazol-2-yl]-3-chloro-4-fluoro-anilino)propanamide] | 187 |
| CC(C(N)=O)N(c1cccnc1)c1nc(N)c(C(=O)c2ccccc2)s1 (racemic) [Example 79, rac-2-[(4-amino-5-benzoyl-thiazol-2-yl)-(3-pyridyl)amino]propanamide] | 6790 |
| CC(C(N)=O)N(c1ccc(F)cc1)c1nc(N)c(C(=O)c2cccc(C#N)c2)s1 (racemic) [Example 12, rac-2-(N-[4-amino-5-(3-cyanobenzoyl)thiazol-2-yl]-4-fluoro-anilino)propanamide] | 364 |
| CC(C(N)=O)N(c1ccc(F)cc1)c1nc(N)c(C(=O)c2ccnc(Cl)c2)s1 (racemic) [Example 186, rac-2-(N-[4-amino-5-(2-chloropyridine-4-carbonyl)thiazol-2-yl]-4-fluoro-anilino)propanamide] | 392 |
| CC(C(N)=O)N(c1ccc(Cl)c(F)c1)c1nc(N)c(C(=O)c2ccc(C(=O)NCCOC(F)(F)F)cc2)s1 (racemic) [Example 269, rac-4-[4-amino-2-(N-(2-amino-1-methyl-2-oxo-ethyl)-4-chloro-3-fluoro-anilino)thiazole-5-carbonyl]-N-[2-(trifluoromethoxy)ethyl]benzamide] | 12 |
| CC(C(N)=O)N(c1ccc(OC(F)F)c(F)c1)c1nc(N)c(C(=O)c2ccc(Cl)cc2)s1 (racemic) [Example 206, rac-2-[N-[4-amino-5-(4-chlorobenzoyl)thiazol-2-yl]-4-(difluoromethoxy)-3-fluoro-anilino]propanamide] | 48 |
| CCOC(=O)COc1ccc(C(=O)c2sc(N(c3ccc(F)cc3)C(C)C(N)=O)nc2N)cc1 (single isomer, unassigned; enantiomer 1) [Example 81.1, ethyl 2-[4-[4-amino-2-(4-fluoro-N-[2-amino-1-methyl-2-oxo-ethyl]anilino)thiazole-5-carbonyl]phenoxy]acetate (enantiomer 1)] | 1020 |
| CC(C(N)=O)N(c1ccc(F)cc1)c1nc(N)c(C(=O)c2ccnc(C(F)F)c2)s1 (racemic) [Example 188, rac-2-(N-[4-amino-5-[2-(difluoromethyl)pyridine-4-carbonyl]thiazol-2-yl]-4-fluoro-anilino)propanamide] | 1240 |
| CC(C(N)=O)N(c1ccc(F)cc1)c1nc(N)c(C(=O)c2ccc(N3CCCC3)cc2)s1 (racemic) [Example 181, rac-2-(N-[4-amino-5-(4-pyrrolidin-1-ylbenzoyl)thiazol-2-yl]-4-fluoro-anilino)propanamide] | 65 |
| COc1ccccc1CNC(=O)COc1ccc(C(=O)c2sc(N(c3ccc(F)cc3)C(C)C(N)=O)nc2N)cc1 (racemic) [Example 94, rac-2-(N-[4-amino-5-[4-[2-[(2-methoxyphenyl)methylamino]-2-oxo-ethoxy]benzoyl]thiazol-2-yl]-4-fluoro-anilino)propanamide] | 25.7 |
| CC(C(N)=O)N(c1ccc(F)cc1)c1nc(N)c(C(=O)c2ccc(OCC(=O)Nc3ccc(C(N)=O)cc3)cc2)s1 (racemic) [Example 109, rac-4-[[2-[4-[4-amino-2-(N-[2-amino-1-methyl-2-oxo-ethyl]-4-fluoro-anilino)thiazole-5-carbonyl]phenoxy]acetyl]amino]benzamide] | 51.7 |
| CC(C(N)=O)N(c1ccc(C(F)(F)F)cc1)c1nc(N)c(C(=O)c2ccc(OC(F)F)cc2)s1 (single isomer, unassigned) [Example 43.1, 2-[N-[4-amino-5-[4-(difluoromethoxy)benzoyl]thiazol-2-yl)-4-(trifluoromethyl)anilino]propanamide] | 2730 |
| CC(C(N)=O)N(c1ccc(F)cc1)c1nc(N)c(C(=O)c2ccc(I)cc2)s1 (racemic) [Example 171, rac-2-(N-[4-amino-5-(4-iodobenzoyl)thiazol-2-yl]4-fluoro-anilino)propanamide] | 11 |
| CC(=O)Nc1ccc(C(=O)c2sc(N(c3ccc(F)cc3)C(C)C(N)=O)nc2N)cc1 (racemic) [Example 185, rac-2-(N-[5-(4-acetamidobenzoyl)-4-amino-thiazol-2-yl]-4-fluoro-anilino)propanamide] | 301 |
| CC(C(N)=O)N(c1ccc(F)cc1)c1nc(N)c(C(=O)c2ccc(OCc3ccccc3)cc2)s1 (racemic) [Example 158, rac-2-(N-[4-amino-5-(4-benzyloxybenzoyl)thiazol-2-yl]-4-fluoro-anilino)propanamide] | 6.71 |
| CC(C(N)=O)N(c1ccc(F)c(F)c1)c1nc(N)c(C(=O)c2ccccc2)s1 (racemic) [Example 32, rac-2-(N-(4-amino-5-benzoyl-thiazol-2-yl)-3,4-difluoro-anilino)propanamide] | 38.7 |

Source: patent US11964953B2, “Substituted aminothiazoles as DGKzeta inhibitors for immune activation” (Bayer Aktiengesellschaft, priority 2020, dated 2024)
